The structures appear in SMILES notation.

Assay [1] deals with H358 cells xenografted into nude mice. Nature of the assay: H358 xenograft in nude mice treated with vehicle or AMG 510: tumor volume and 12D versus 12C* ratio. The note with it: treated once per day from two weeks after xenografting, versus vehicle. Format: in vivo. The protocol: (A) A culture of human lung cancer H358 cells was nucleofected with SpCas9 protein and synthetic gRNA/tracrRNA targeting the oncogenic 12C mutation in KRAS present in these cells along with an oligonucleotide comprising the mutation of interest, which was another oncogenic KRAS mutation (12D), and an oligonucleotide comprising a synonymous mutation ([…]). At Day 2 after transfection, an aliquot of the cell culture was analysed by PCR amplification of the genomic target site and NGS of the PCR product to determine the ratio of 12D versus 12C* alleles in the cell population. […] (B) Determination of tumor volumes over time. (C) Representative mice photographed on day 40. […]
A culture of human lung cancer H358 cells was nucleofected with SpCas9 protein and synthetic gRNA/tracrRNA targeting the oncogenic 12C mutation in KRAS present in these cells along with an oligonucleotide comprising the mutation of interest, which was another oncogenic KRAS mutation (12D), and an oligonucleotide comprising a synonymous mutation (12C*). At Day 2 after transfection, an aliquot of the cell culture was analysed by PCR amplification of the genomic target site and NGS of the PCR product to determine the ratio of 12D versus 12C* alleles in the cell population. […] (B) Tumor volumes were determined over time and, (C) representative mice photographed on day 40.

A further assay deals with Hep3B cells. Nature of the assay: FGFR4 550M to WT* ratio in cells cultured without or with Fisogatinib. Format: cell-based, human. The settings on record: 0.72 μM Fisogatinib until Day 16; ratios normalized to Day 2. From the text: Data represent ratios normalized to the value at Day 2 and are means of 3 independent experiments +/−SD. Two-tailed paired t-tests were used to calculate the significance in all cases. NS=not significant. ** indicates p<0.01. The figure and results are further described in the Examples.
Cultures of human liver cancer Hep3B cells, which harbor FGF19 focal amplification, were nucleofected with SpCas9 protein and synthetic gRNA/tracrRNA targeting a genomic site overlapping the site to be mutated along with an oligonucleotide comprising the mutation of interest (V550M) in the Fisogatinib-binding site of FGFR4 and an oligonucleotide comprising a synonymous mutation (WT*). At Day 2 after nucleofection, an aliquot of the cell culture was analysed by PCR amplification of the genomic target site and NGS of the PCR product to determine the ratio of 550M to WT* alleles in the cell population. Thereafter, cells were split in two cultures, and cultured in the absence (−) or presence (+) of 0.72 μM Fisogatinib until Day 16, whereafter the mutation analysis was repeated on each culture. […] Such applications of the method are important for clinical management as well as for drug development in the pharmaceutical industry.

Another assay deals with SW620 (MLH1+/+) cells. Nature of the assay: MUT:WT* ratio of MLH1 loss-of-function variants without or with 6-thioguanine. The settings on record: E448STOP, Q537STOP; 2 μM 6-thioguanine until Day 11. Format: cell-based, human. From the text: Data represent ratios normalized to the value at Day 2 and are means of 3 independent experiments +/−SD. Two-tailed paired t-test were used to calculate the significance in all cases. NS=not significant. ** indicates p<0.01. *** indicates p<0.001. The figure and results are further described in the Examples.
Cultures of human colon cancer SW620 (MLH1+/+) cells were nucleofected with SpCas9 protein and synthetic gRNA/tracrRNA targeting genomic sites in MLH1 overlapping the sites to be mutated along with an oligonucleotide comprising the mutation of interest (MUT), which was as a known loss-of-function variant (E448STOP or Q537STOP), and an oligonucleotide comprising a corresponding synonymous mutation (WT*). At Day 2 after nucleofection, an aliquot of the cell culture was analysed by PCR amplification of the genomic target site and NGS of the PCR product to determine the ratio of MUT to WT* alleles in the cell population. Thereafter, cells were split in two cultures, and cultured in the absence (−) or presence (+) of 2 μM 6-thioguanine until Day 11, where after the mutation analysis was repeated for each culture.

The next assay has as its system MCF10A (ATM+/+) cells. Nature of the assay: MUT:WT* ratio of ATM loss-of-function variants without or with Talazoparib. Type of assay: cell-based, human. The note with it: R23STOP, Q218STOP, E365STOP; 2 nM Talazoparib until Day 12. From the text:
Data represent ratios normalized to the value at Day 2 and show a representative experiment. The figure and results are further described in the Examples.
Cultures of human breast epithelial MCF10A (ATM+/+) cells expressing SpCas9 were transfected with synthetic gRNA/tracrRNA targeting genomic sites in ATM overlapping the sites to be mutated along with an oligonucleotide comprising the mutation of interest (MUT), which was as known loss-of-function variants (R23STOP, Q218STOP or E365STOP), and an oligonucleotide comprising a corresponding synonymous mutation (WT*). At Day 2 after transfection, an aliquot of each culture was analysed by PCR amplification of the genomic target site and NGS of the PCR product to determine the ratio of MUT to WT* alleles in the cell population. Thereafter, cells were cultured in the absence (−) or presence (+) of 2 nM Talazoparib (a PARP inhibitor) until Day 12, where after the mutation analysis was repeated.

Another assay relates to MCF10A-BRCA2+/− cells. Description: MUT:WT* ratio of BRCA2 variants in cells cultured without or with PARP inhibitor. Type of assay: cell-based, human. The settings on record: 2 nM Talazoparib until Day 12, ratios normalized to Day 2. The protocol: At Day 2 after transfection, an aliquot of each culture was analysed by PCR amplification of the genomic target site and NGS of the PCR product to determine the ratio of MUT to WT* alleles in the cell population. Thereafter, cells were cultured in the absence or presence of 2 nM Talazoparib (a PARP inhibitor) until Day 12, whereafter the mutation analysis was repeated. Data represent ratios
normalized to the value at Day 2 and are means of 3 independent experiments +/−SD. Two-tailed unpaired t-tests were used to calculate the significance in all cases. NS=not significant. ** indicates p<0.01. **** indicates p<0.0001.
BRCA2 loss-of-function mutations sensitize cells to inhibitors of PARP, which are used in clinical trials/in the clinic as a synthetic lethal personalized therapy for cancer patients with BRCA inactivating mutations. We analysed one neutral BRCA2 mutation (D946V) and two loss-of-function BRCA2 mutations (I2627N, Y2660C) in breast epithelial MCF10A-BRCA2+/− cells cultured in the absence or presence of PARP inhibitor. […] Furthermore, the method will thereby also be useful for the purpose of drug development, drug testing and stratification of cancer patients in clinical trials with new drugs.

For `C=CC(=O)N1CCN(c2nc(=O)n(-c3c(C)ccnc3C(C)C)c3nc(-c4c(O)cccc4F)c(F)cc23)[C@@H](C)C1` [AMG 510], the “bulk tumor size (tumor volumes over time)” value in assay [1] is recorded as “greatly reduced”.

With `C=CC(=O)N[C@H]1CCOC[C@H]1Nc1ncc2cc(-c3c(Cl)c(OC)cc(OC)c3Cl)ccc2n1` [Fisogatinib], the “selection of cells harboring the FGFR4-V550M mutation relative to WT* (resistance)” value in the assay on Hep3B cells is reported as “strongly selected for”.

`Nc1nc2nc[nH]c2c(=S)[nH]1` [6-thioguanine]: the “ability of MLH1 to elicit apoptosis in response to 6-thioguanine in cells with loss-of-function mutations” value in the assay on SW620 (MLH1+/+) cells was “disabled”.

Consider `Cn1ncnc1[C@H]1c2n[nH]c(=O)c3cc(F)cc(c23)N[C@@H]1c1ccc(F)cc1` [Talazoparib], for which the “sensitivity of cells with loss-of-function ATM mutations to PARP inhibitor killing” value in the assay with MCF10A (ATM+/+) cells was “sensitized them to PARP inhibitor killing”. Also, the “effect on cells with the neutral BRCA2 mutation (MUT:WT* ratio)” value with MCF10A-BRCA2+/− cells (D946V) is on record as “no effect”. In the assay with MCF10A-BRCA2+/− cells (I2627N, Y2660C), the “cell proliferation and/or survival of cells with the loss-of-function BRCA2 mutations” value was “greatly decreased”.
